Here are results for two compounds from patent US6627732B1, “Glutathione derivatives and their dosage forms” (Teijin Limited, priority 1998, dated 2003).

One data set deals with IL-1β. Put plainly: Plasma level of IL-1β in normal healthy rats (ELISA). It is filed as in vivo, rat. The note with it: fat emulsion 20 mg/kg-body weight/day, days 3, 5 and 7. The source says:
, plasma obtained form the EDTA-2K-treated blood on days 3, 5, and 7 of the experiment was used to determine plasma levels of interleukin 1β (hereinafter referred to as IL-1β) and tumor necrosis factor (hereinafter referred to as TNFα). For the determination, the rat IL-1β-ELISA system (manufactured by Amersham Pharmacia Biotek Co., Ltd.), the rat TNFα-ELISA system (manufactured by Amersham Pharmacia Biotek Co., Ltd.), and the BioRad microplate reader (MODEL550, Nippon BioRad laboratories, Co., Ltd.).
In general terms: An ELISA detects its analyte on a solid surface through an enzyme-linked reagent.

In data set [1] the test system is rat models of suppressed hematopoietic function by 5-FU administration. Description: Ratio of segmented neutrophils in rat models of suppressed hematopoietic function by 5-FU (Example 27). The class given is in vivo. The note with it: 5-FU rats; 30 mg/kg-body weight/day with fat emulsion. As to the method:
(1) The animals used are the same as in Example 26. The keeping condition was a temperature of 23±2° C. and a humidity of 55±15%.
(2) The creation of the 5-FU administration model, the administration of test substances, and the blood collection schedule were carried out in a similar manner to Example 26. Hematological tests were carried out using the Toa multi-channel automatic cell counter K-4500 or Toa Sysmex CC-180A automatic cell counter, differential counts of white blood cells were carried out by May-Giemsa stain followed by microscopic examination, reticulocytes were counted by the Brecher method.
(3) Using the same schedule as in Example 26, the negative control group that only received the fat emulsion after 5-FU administration, the group that received the glutathione derivative of Example 4 at 30 mg/kg-body weight/day as a test substance together with the fat emulsion, the group that similarly received the glutathione derivative of Example 1 at 10 or 30 mg/kg-body weight/day, and the group that received the glutathione derivative of Example 7 at 30 or 60 mg/kg-body weight/day were studied.

Data set [2] can be described thus: Fat emulsion: particle distribution and content after 1.2 μm filtration (Examples 17, 18). It is filed as physicochemical. The note with it: final concentration about 1 mg/ml. As for the experimental part:
Preparation of the fat emulsion having as an active ingredient the glutathione derivative of Example 4 was carried out using a high-pressure injection type homogenizer.
(1) The high-pressure injection type homogenizer used was Nanomizer LA from Nanomizer K.K. Purified yolk lecithin, purified soybean oil, and glycerin used were those that can be intravenously injected.
(2) Purified yolk lecithin 6 g and purified soybean oil 55 g were mixed by a mixer while heating to homogeneity. To this was added 560 mg of the glutathione derivative of Example 4 and was further stirred to homogeneity. A suitable amount of glycerin and water for injection were added and rough-emulsified by a mixer, and pH was adjusted to 7.4 with an aqueous solution of sodium hydroxide. Water was further added to a total amount of 560 g, which was pure-emulsified using the Nanomizer LA at an emulsification pressure of 550 kgf/cm^2 by passing it through the emulsion part for 11 times. […]
When the emulsion was crushed with tetrahydrofuran before and after filtration with a 1.2 μm filter and the content of the glutathione derivative of Example 4 was measured by HPLC, it was confirmed that the content of 90% or more of that before filtration was retained, homogeneity was good, and the glutathione derivative of Example 4 was stably mixed in the oil phase emulsion particles. […]

In another data set the test system is HL-60 cells. Description: HL-60 cell differentiation induction, NBT reducing activity, DMSO as solvent (Example 21). It is filed as cell-based, human. The source says: In a manner similar to that in Example 20, the in vitro activity of the glutathione derivatives of Examples 4, 5, and 8, and Comparative Example 3 were compared.
(1) The differences from Example 20 were: First, since the glutathione derivatives of Examples and Comparative Examples used dimethyl sulfoxide (DMSO) as the solvent because of the solubility of the compounds, the system contained 0.1-0.3 (v/v)% DMSO instead of ethanol. […] This caused slight differences in the sensitivity in the test results of the glutathione derivative of Example 4. Furthermore, in Example 21, the differentiation induction on HL-60 cells into granulocytic cells in the coexistence of 9-cis-RA was only evaluated.

Data set [3] is described as follows: Intravenous administration of high dosages, local reaction. The class given is in vivo. The note with it: high dosages administered intravenously.
The nature of data set [4]: Plasma concentration after intravenous administration to mice (Example 24). The note with it: iv tail vein 50 mg/kg, HPCD solution, 5 min, individual mice, quantitation limit about 1 μg/ml. It is filed as in vivo, mouse. As to the method: The blood levels of the glutathione derivatives of Example 4 and Comparative Example 1 were compared in mice that are a species having a high esterase activity in the blood.
(1) Male 8-week old BDF1 mice were purchased from Nippon SLC and used for the experiment. Until 9-week old when they were subjected to the experiment, the animals were kept at a temperature of 24±2° C. and a humidity of 55±5% under the condition under which the animals had free access to the animal feed (MF, Oriental Yeast Co., Ltd.) and drinking water (well water treated with 0.4±0.2 ppm hypochlorous acid).
After a fixed time, about 1 ml of blood was drawn from the heart of the animal under ethereal anesthesia (after drawing blood once, each mouse is sacrificed). The N number for each sample group at each time point was 2. After drawing, the blood was immediately cooled on ice and was centrifuged in the presence of sodium citrate to collect plasma. The plasma thus obtained was deproteinized with acetonitrile and then was analyzed by a C18 reverse phase high performance liquid chromatography using an aqueous solution of trifluoroacetic acid/acetonitrile system as the mobile phase to determine the concentration of glutathione derivative for each plasma.

Data set [5] is described as follows: Dialysis of fat emulsion in aqueous glycerin, content of glutathione derivative retained (Example 23). It is filed as physicochemical. The note with it: 2 mg/ml fat emulsion, dialysis 2 days at room temperature in 2.3 (w/v)% glycerin, 1.2 μm filter; uncorrected for volume increase. As to the method:
The glutathione derivative combined with a fat emulsion was dialyzed in an aqueous solution of glycerin to compare changes in the content of the glutathione derivative in the fat emulsion.
Thereupon, the concentration of the glutathione derivative in the fat emulsion was adjusted to 2 mg/ml.
(2) These fat emulsions (14 ml) were dialyzed in 1 liter of a 2.3 (w/v)% aqueous solution of glycerin. Dialysis was carried out at room temperature for 2 days with one change of the aqueous glycerin solution during the dialysis. All the fat emulsions after dialysis were about 15.6 ml. They were filtered by a 1.2 μm filter and the content of the glutathione derivative was measured.

In the case of `CCCCCCCCCCCCCCCCOC(=O)[C@@H](N)CCC(=O)N[C@@H](CSCc1ccccc1)C(=O)N[C@@H](C(=O)OCC)c1ccccc1.Cl` [Example 4, Glu(Cys(Bzl)-D-Phg-OEt)-O(Hexadecyl)hydrochloride], in the data set with IL-1β, the “Plasma level of IL-1β relative to the negative control group” value is recorded as “No increases”. Further, in data set [1], the “Recovery of segmented neutrophil counts relative to the negative control” value was “tendency of promoting the recovery of segmented neutrophil counts”. Moreover, the “Content after filtration with a 1.2 μm filter” value in data set [2] (alcohol solution mixed with water for injection) is recorded as at most 75%. Further, the “Behaviour on mixing alcohol solution with water for injection” value in data set [2] is recorded as “immediately crystallized”. Also, the “Differentiation induction activity compared with Comparative Example 3” value in the data set with HL-60 cells (HL-60, coexistence of 9-cis-RA) is “activity higher than that of Comparative Example 3”. The “Ratio of NBT reduction activity-positive cells” value in the data set with HL-60 cells (compound 3 × 10^−6 M in DMSO, Solvent control (EtOH - 0.1%)) is listed as 0.6%; in the data set with HL-60 cells (compound 3 × 10^−6 M in DMSO, with 9-cis-RA (5 × 10^−9 M)) it was 29.9%; in the data set on HL-60 cells (compound 3 × 10^−7 M in DMSO, Solvent control (EtOH - 0.1%)), 0.9%; in the data set on HL-60 cells (compound 3 × 10^−7 M in DMSO, with 9-cis-RA (5 × 10^−9 M)), 11.0%; in the data set on HL-60 cells (compound 3 × 10^−8 M in DMSO, Solvent control (EtOH - 0.1%)) it was 0.7%; in the data set with HL-60 cells (compound 3 × 10^−8 M in DMSO, with 9-cis-RA (5 × 10^−9 M)), 3.1%. Also, the “Ratio of NBT reduction activity-positive cells” value in the data set on HL-60 cells (compound 10^−6 M in DMSO, Solvent control (EtOH - 0.1%)) stood at 0.3%; in the data set with HL-60 cells (compound 10^−6 M in DMSO, with 9-cis-RA (5 × 10^−9 M)), 21.2%; with HL-60 cells (compound 10^−7 M in DMSO, Solvent control (EtOH - 0.1%)), 0.7%; in the data set with HL-60 cells (compound 10^−7 M in DMSO, with 9-cis-RA (5 × 10^−9 M)), 5.6%; in the data set on HL-60 cells (compound 10^−8 M in DMSO, Solvent control (EtOH - 0.1%)), 0.6%; in the data set on HL-60 cells (compound 10^−8 M in DMSO, with 9-cis-RA (5 × 10^−9 M)) it was 2.5%.

With `CCOC(=O)[C@@H](N)CCC(=O)N[C@@H](CSCc1ccccc1)C(=O)N[C@@H](C(=O)OCC)c1ccccc1.Cl` [Comparative Example 1, Glu(Cys(Bzl)-D-Phg-O(Et))-O(Et)hydrochloride, reference compound], in data set [3], the “Local reaction at the site of administration” value is reported as “can cause inflammation at the site of administration”. In data set [4], this compound displayed a Plasma concentration of at most 1000 ng/mL. In addition, the “Content of the glutathione derivative in the fat emulsion after dialysis, of the initial feed” value in data set [5] came out at 14.0%.
